Measurements taken from patent US9476053B2, “Methods and compositions for inhibition of immune responses and autoimmunity” (Dynavax Technologies Corporation, priority 2007, dated 2016).
Like-named read-outs stand apart in the source and are kept apart here.

Assays:
TLR9 = target: T1, TLR9 (Homo sapiens, UniProt Q9NR96); assay: TLR9 dependent cell responses (statement in description); format: cell-based
T1 sequence (Q9NR96 26-1032): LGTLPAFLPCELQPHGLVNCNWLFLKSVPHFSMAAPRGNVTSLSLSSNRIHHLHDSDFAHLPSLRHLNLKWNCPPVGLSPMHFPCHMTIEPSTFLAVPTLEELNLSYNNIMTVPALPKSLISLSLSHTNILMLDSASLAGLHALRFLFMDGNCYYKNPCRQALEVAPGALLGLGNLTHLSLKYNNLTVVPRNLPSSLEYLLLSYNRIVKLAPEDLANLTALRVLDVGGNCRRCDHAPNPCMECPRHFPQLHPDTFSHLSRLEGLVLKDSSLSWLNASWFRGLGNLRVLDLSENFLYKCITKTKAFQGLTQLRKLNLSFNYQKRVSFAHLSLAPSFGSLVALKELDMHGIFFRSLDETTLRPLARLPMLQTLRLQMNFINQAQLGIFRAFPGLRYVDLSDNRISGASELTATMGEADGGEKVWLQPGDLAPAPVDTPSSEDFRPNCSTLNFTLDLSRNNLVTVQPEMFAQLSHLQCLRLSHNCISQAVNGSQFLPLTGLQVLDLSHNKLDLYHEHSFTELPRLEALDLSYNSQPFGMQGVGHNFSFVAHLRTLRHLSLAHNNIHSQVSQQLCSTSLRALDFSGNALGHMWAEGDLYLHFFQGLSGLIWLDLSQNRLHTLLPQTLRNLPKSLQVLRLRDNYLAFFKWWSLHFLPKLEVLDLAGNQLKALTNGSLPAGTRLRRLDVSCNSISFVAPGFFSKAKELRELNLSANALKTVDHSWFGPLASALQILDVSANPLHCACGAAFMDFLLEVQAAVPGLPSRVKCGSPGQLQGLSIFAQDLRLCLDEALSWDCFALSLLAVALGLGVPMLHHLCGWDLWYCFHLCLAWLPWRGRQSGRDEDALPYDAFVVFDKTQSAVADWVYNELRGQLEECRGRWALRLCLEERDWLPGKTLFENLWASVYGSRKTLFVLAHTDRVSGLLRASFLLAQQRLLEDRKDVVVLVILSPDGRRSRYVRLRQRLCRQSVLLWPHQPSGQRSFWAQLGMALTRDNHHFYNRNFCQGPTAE

TLR7 = target: T2, TLR7 (Homo sapiens, UniProt Q9NYK1); assay: TLR7 dependent cell responses (statement in description); format: cell-based
T2 sequence (Q9NYK1 27-1049): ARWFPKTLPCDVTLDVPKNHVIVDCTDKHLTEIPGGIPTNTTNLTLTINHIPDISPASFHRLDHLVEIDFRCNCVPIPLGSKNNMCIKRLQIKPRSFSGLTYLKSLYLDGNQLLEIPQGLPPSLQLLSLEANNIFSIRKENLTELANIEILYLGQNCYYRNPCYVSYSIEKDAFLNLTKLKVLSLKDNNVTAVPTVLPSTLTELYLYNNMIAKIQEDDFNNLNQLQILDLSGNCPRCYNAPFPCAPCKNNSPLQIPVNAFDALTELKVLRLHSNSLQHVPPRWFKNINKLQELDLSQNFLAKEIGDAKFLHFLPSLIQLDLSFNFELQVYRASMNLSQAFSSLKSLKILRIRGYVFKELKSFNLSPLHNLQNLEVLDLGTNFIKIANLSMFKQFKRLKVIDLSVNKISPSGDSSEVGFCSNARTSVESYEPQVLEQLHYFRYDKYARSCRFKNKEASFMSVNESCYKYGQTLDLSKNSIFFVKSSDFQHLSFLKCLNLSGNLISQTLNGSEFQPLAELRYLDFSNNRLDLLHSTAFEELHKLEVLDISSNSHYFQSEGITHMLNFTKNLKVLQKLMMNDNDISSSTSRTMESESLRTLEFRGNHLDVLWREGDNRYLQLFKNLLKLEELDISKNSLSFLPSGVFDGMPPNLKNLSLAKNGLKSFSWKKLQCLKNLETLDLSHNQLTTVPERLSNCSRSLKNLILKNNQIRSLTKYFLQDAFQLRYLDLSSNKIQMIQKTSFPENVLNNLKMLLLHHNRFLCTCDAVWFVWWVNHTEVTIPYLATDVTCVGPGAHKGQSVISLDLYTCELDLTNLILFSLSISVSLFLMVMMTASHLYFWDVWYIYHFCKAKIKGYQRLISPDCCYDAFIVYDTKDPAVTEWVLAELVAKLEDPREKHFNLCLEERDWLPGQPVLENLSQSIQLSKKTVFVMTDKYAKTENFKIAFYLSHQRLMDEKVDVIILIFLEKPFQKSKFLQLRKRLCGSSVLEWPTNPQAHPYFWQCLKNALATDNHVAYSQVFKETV

[1] = system: plasmacytoid dendritic cells (PDCs); format: cell-based, human; details: read-out: concentration of hydroxycortisone necessary to achieve 50% death of PDCs

| Compound | TLR9 dependent cell responses (TLR9) | TLR7 dependent cell responses (TLR7) | further results |
| --- | --- | --- | --- |
| 5′-TCCTGGAGGGGTTGT-3′ (chemistry not given here) [SEQ ID NO:17] | greater inhibitory activity | – | – |
| 5′-TGCTTGCAAGCTAGCAAGCA-3′ (chemistry not given here) [SEQ ID NO:33] | – | inhibits | – |
| 5′-TGCTTGCAAGCTAGCAAGCA-HEG-TCCTGGAGGGGTTGT-3′ (TGCTTGCAAGCTAGCAAGCATCCTGGAGGGGTTGT; Two nucleotide segments joined by a hexaethylene glycol (HEG) spacer, nucleotide chemistry not given here) [SEQ ID NO:68] | very active in inhibiting | very active in inhibiting | – |
| 5′-TGCTTGCAAGCTTGCAAGCA-3′ (chemistry not given here) [SEQ ID NO:27] | – | inhibits | – |
| 5′-TGCTTGCAAGCTTGCTAGCA-3′ (chemistry not given here) [SEQ ID NO:34] | The same is also true | The same is also true | – |
| 5′-TGCTTGCAAGCTTGCTAGCA-HEG-TCCTGGAGGGGTTGT-3′ (TGCTTGCAAGCTTGCTAGCATCCTGGAGGGGTTGT; Two nucleotide segments joined by a hexaethylene glycol (HEG) spacer, nucleotide chemistry not given here) [SEQ ID NO:69] | The same is also true | The same is also true | – |
| C[C@]12CCC(=O)C=C1CC[C@@H]1[C@@H]2[C@@H](O)C[C@@]2(C)[C@H]1CC[C@]2(O)C(=O)CO [hydroxycortisone, reference compound] | – | – | EC50 ([1]; in the presence of CpG-C ISS C274): 2000 nM; EC50 ([1]; in the presence of HSV (HSV-1 KOS strain)): 150 nM; EC50 ([1]; in the presence of HSV and SEQ ID NO:123): 4 nM; EC50 ([1]; in the presence of influenza virus and SEQ ID NO:123): 22 nM; EC50 ([1]; in the presence of influenza virus): 4500 nM; EC50 ([1]; in the presence of the ISS and SEQ ID NO:123): 85 nM |
